In patent US20240270762A1, “PENICILLIN-BINDING PROTEIN INHIBITORS” (priority 2021, published 2024):
Values after ≈ are worked out from the molar mass of the structure shown.

Tests used:
[1] = molecular target: T1, PBP3 from Escherichia coli (K-12) (Escherichia coli, UniProt P0AD68); assay: Bocillin-FL fluorescence polarization competition binding, E. coli PBP3
T1 construct: made in house
Method in brief: (§1)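 Purified PBPs pre-incubated with inhibitor (E. coli PBP3 1.5 μM, 30 min; P. aeruginosa PBP3 0.75 μM, A. baumannii PBP1a 1 μM and PBP3 0.2 μM, 15 min), then Bocillin-FL 0.1 μM (0.05 μM for PBP1a) added; FP read up to 60 min. EC50 = concentration halving bound Bocillin-FL.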

[2] = molecular target: T2, PBP3 from Pseudomonas aeruginosa (PAO1) (Pseudomonas aeruginosa, UniProt G3XD46); assay: Bocillin-FL fluorescence polarization competition binding, P. aeruginosa PBP3; conditions: Binding affinity to P. aeruginosa PBP3; fluorescence polarization competition binding assay using Bocillin-FL; read-out: P. aeruginosa PBP3 Potency
T2 construct: made in house
T2 sequence (G3XD46 whole entry): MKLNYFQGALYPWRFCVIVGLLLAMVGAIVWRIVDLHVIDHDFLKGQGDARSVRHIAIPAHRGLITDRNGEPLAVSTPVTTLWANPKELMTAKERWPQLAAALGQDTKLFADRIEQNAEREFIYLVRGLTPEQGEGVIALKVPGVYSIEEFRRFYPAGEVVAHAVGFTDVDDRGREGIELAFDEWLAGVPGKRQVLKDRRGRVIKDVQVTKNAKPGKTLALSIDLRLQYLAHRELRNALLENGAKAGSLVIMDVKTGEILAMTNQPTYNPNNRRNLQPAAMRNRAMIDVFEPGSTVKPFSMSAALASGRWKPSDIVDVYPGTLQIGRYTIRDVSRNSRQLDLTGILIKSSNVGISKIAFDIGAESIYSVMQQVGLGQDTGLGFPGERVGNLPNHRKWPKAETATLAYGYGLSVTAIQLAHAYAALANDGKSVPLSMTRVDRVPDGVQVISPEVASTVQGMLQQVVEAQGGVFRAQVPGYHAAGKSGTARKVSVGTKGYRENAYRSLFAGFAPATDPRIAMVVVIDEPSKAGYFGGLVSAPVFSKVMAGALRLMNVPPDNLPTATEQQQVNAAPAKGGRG
Method in brief: as §1

A. baumannii ATCC 19606 = assay: microbe, parasite or virus in culture; type: cell-based; conditions: Acinetobacter baumannii, ATCC19606, read-out: MIC, A. baumannii ATCC 19606
P. aeruginosa ATCC 35151 = assay: microbe, parasite or virus in culture; type: cell-based; conditions: Pseudomonas aeruginosa, ATCC35151, read-out: Minimum inhibitory concentration, P. aeruginosa ATCC 35151
[3] = system: P. aeruginosa (ΔmexAB-oprM); assay: Broth microdilution MIC in iron-depleted CAMHB (IDM); type: cell-based; conditions: Pseudomonas aeruginosa; iron-depleted CAMHB (IDM); […]; read-out: Minimum inhibitory concentration, P. aeruginosa ΔmexAB-oprM
P. aeruginosa CDC-0090 = assay: microbe, parasite or virus in culture; type: cell-based; conditions: Pseudomonas aeruginosa, CDC0090, read-out: Minimum inhibitory concentration, P. aeruginosa CDC-0090
A. baumannii CDC-0083 = assay: microbe, parasite or virus in culture; type: cell-based; conditions: Acinetobacter baumannii, CDC0083, read-out: MIC, A. baumannii CDC-0083
[4] = system: B. humptydooensis ATCC BAA-2767; assay: microbe, parasite or virus in culture; type: cell-based; conditions: Burkholderia humptydooensis, ATCCBAA2767, read-out: Minimum inhibitory concentration (MIC), B. humptydooensis ATCC BAA-2767
N. gonorrhoeae FA1090 = assay: Liquid broth MIC in Fastidious broth; conditions: Neisseria gonorrhoeae, FA1090, read-out: Minimum Inhibitory Concentration (MIC), N. gonorrhoeae FA 1090
N. gonorrhoeae WHO L = assay: Liquid broth MIC in Fastidious broth; conditions: Neisseria gonorrhoeae, read-out: Minimum Inhibitory Concentration (MIC), N. gonorrhoeae WHO L
N. gonorrhoeae WHO M = assay: Liquid broth MIC in Fastidious broth; conditions: Neisseria gonorrhoeae, read-out: Minimum Inhibitory Concentration (MIC), N. gonorrhoeae WHO M
N. gonorrhoeae WHO K = assay: Liquid broth MIC in Fastidious broth; conditions: Neisseria gonorrhoeae, read-out: Minimum Inhibitory Concentration (MIC), N. gonorrhoeae WHO K
N. gonorrhoeae WHO X = assay: Liquid broth MIC in Fastidious broth; conditions: Neisseria gonorrhoeae, read-out: Minimum Inhibitory Concentration (MIC), N. gonorrhoeae WHO X
N. gonorrhoeae WHO Z = assay: Liquid broth MIC in Fastidious broth; conditions: Neisseria gonorrhoeae, read-out: Minimum Inhibitory Concentration (MIC), N. gonorrhoeae WHO Z
N. gonorrhoeae CDC-0197 = assay: Liquid broth MIC in Fastidious broth; conditions: Neisseria gonorrhoeae, CDC0197, read-out: Minimum Inhibitory Concentration (MIC), N. gonorrhoeae CDC-0197

T1 sequence (P0AD68 1-577): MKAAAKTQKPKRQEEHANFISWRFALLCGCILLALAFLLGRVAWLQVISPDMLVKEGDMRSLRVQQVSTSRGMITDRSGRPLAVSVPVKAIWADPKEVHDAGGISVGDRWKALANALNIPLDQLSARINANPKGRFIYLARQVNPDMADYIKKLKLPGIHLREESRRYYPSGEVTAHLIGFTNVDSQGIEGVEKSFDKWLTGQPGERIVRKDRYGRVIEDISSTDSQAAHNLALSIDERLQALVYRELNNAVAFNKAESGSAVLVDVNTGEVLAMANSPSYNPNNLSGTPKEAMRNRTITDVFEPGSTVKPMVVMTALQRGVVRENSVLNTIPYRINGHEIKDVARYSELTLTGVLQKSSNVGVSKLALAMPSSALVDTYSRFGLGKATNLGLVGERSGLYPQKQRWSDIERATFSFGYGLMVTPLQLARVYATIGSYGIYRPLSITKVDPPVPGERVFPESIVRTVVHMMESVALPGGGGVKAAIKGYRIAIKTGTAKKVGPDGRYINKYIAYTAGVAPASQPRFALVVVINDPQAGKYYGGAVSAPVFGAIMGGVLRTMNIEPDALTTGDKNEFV

Compound | EC50 [1] | IC50 [2] | MIC (A. baumannii ATCC 19606) | MIC (P. aeruginosa ATCC 35151) | MIC [3] | MIC (P. aeruginosa CDC-0090) | MIC (A. baumannii CDC-0083) | MIC [4] | MIC (N. gonorrhoeae FA1090) | MIC (N. gonorrhoeae WHO L) | MIC (N. gonorrhoeae WHO M) | MIC (N. gonorrhoeae WHO K) | MIC (N. gonorrhoeae WHO X) | MIC (N. gonorrhoeae WHO Z) | MIC (N. gonorrhoeae CDC-0197)
O=C(NCCCN1CCN(C(=O)NC(C(=O)N[C@H]2Cc3ccc(F)c(C(=O)O)c3OB2O)c2cc(F)c(O)c(O)c2Cl)C(=O)C1=O)c1ccccc1 (stereo partly drawn) [Example 202, (3R)-3-(2-(4-(3-benzamidopropyl)-2,3-dioxopiperazine-1-carboxamido)-2-(2-chloro-5-fluoro-3,4-dihydroxyphenyl)acetamido)-7-fluoro-2-hydroxy-3,4-dihydro-2H-benzo[e][1,2]oxaborinine-8-carboxylic acid] | < 10 µM | < 10 µM | < 1 µg/mL | < 1 µg/mL | < 1 µg/mL | 2 to 4 µg/mL (≈ 2.69 to 5.38 µM) | < 1 µg/mL | < 1 µg/mL | 4 to 8 µg/mL (≈ 5.38 to 10.8 µM) | > 64 µg/mL | 16 to 32 µg/mL (≈ 21.5 to 43 µM) | > 64 µg/mL | > 64 µg/mL | > 64 µg/mL | > 64 µg/mL
O=C(NCCCN1CCN(C(=O)NC(C(=O)N[C@H]2Cc3ccc(F)c(C(=O)O)c3OB2O)c2cc(F)c(O)c(O)c2Cl)C(=O)C1=O)c1ccc(O)cc1 (stereo partly drawn) [Example 203, (3R)-3-(2-(2-chloro-5-fluoro-3,4-dihydroxyphenyl)-2-(4-(3-(4-hydroxybenzamido)propyl)-2,3-dioxopiperazine-1-carboxamido)acetamido)-7-fluoro-2-hydroxy-3,4-dihydro-2H-benzo[e][1,2]oxaborinine-8-carboxylic acid] | < 10 µM | < 10 µM | < 1 µg/mL | < 1 µg/mL | < 1 µg/mL | < 1 µg/mL | < 1 µg/mL | < 1 µg/mL | < 1 µg/mL | 16 to 32 µg/mL (≈ 21.1 to 42.1 µM) | 4 to 8 µg/mL (≈ 5.26 to 10.5 µM) | > 64 µg/mL | > 64 µg/mL | 16 to 32 µg/mL (≈ 21.1 to 42.1 µM) | 16 to 32 µg/mL (≈ 21.1 to 42.1 µM)
O=C(NCCCN1CCN(C(=O)NC(C(=O)N[C@H]2Cc3ccc(F)c(C(=O)O)c3OB2O)c2cc(F)c(O)c(O)c2Cl)C(=O)C1=O)c1cccc(O)c1 (stereo partly drawn) [Example 204, (3R)-3-(2-(2-chloro-5-fluoro-3,4-dihydroxyphenyl)-2-(4-(3-(3-hydroxybenzamido)propyl)-2,3-dioxopiperazine-1-carboxamido)acetamido)-7-fluoro-2-hydroxy-3,4-dihydro-2H-benzo[e][1,2]oxaborinine-8-carboxylic acid] | < 10 µM | < 10 µM | < 1 µg/mL | < 1 µg/mL | < 1 µg/mL | < 1 µg/mL | < 1 µg/mL | < 1 µg/mL | 1 to 2 µg/mL (≈ 1.32 to 2.63 µM) | > 64 µg/mL | 4 to 8 µg/mL (≈ 5.26 to 10.5 µM) | > 64 µg/mL | > 64 µg/mL | 16 to 32 µg/mL (≈ 21.1 to 42.1 µM) | 16 to 32 µg/mL (≈ 21.1 to 42.1 µM)
O=C(NCCCN1CCN(C(=O)NC(C(=O)N[C@H]2Cc3ccc(F)c(C(=O)O)c3OB2O)c2cc(F)c(O)c(O)c2Cl)C(=O)C1=O)c1ccncc1 (stereo partly drawn) [Example 205, (3R)-3-(2-(2-chloro-5-fluoro-3,4-dihydroxyphenyl)-2-(4-(3-(isonicotinamido)propyl)-2,3-dioxopiperazine-1-carboxamido)acetamido)-7-fluoro-2-hydroxy-3,4-dihydro-2H-benzo[e][1,2]oxaborinine-8-carboxylic acid] | < 10 µM | < 10 µM | < 1 µg/mL | < 1 µg/mL | < 1 µg/mL | < 1 µg/mL | < 1 µg/mL | < 1 µg/mL | 1 to 2 µg/mL (≈ 1.34 to 2.69 µM) | > 64 µg/mL | 4 to 8 µg/mL (≈ 5.37 to 10.7 µM) | > 64 µg/mL | > 64 µg/mL | 16 to 32 µg/mL (≈ 21.5 to 43 µM) | 16 to 32 µg/mL (≈ 21.5 to 43 µM)
O=C(NCCCN1CCN(C(=O)NC(C(=O)N[C@H]2Cc3ccc(F)c(C(=O)O)c3OB2O)c2cc(F)c(O)c(O)c2Cl)C(=O)C1=O)Nc1cccc(O)c1 (stereo partly drawn) [Example 206, (3R)-3-(2-(2-chloro-5-fluoro-3,4-dihydroxyphenyl)-2-(4-(3-(3-(3-hydroxyphenyl)ureido)propyl)-2,3-dioxopiperazine-1-carboxamido)acetamido)-7-fluoro-2-hydroxy-3,4-dihydro-2H-benzo[e][1,2]oxaborinine-8-carboxylic acid] | < 10 µM | < 10 µM | < 1 µg/mL | < 1 µg/mL | < 1 µg/mL | < 1 µg/mL | < 1 µg/mL | < 1 µg/mL | 1 to 2 µg/mL (≈ 1.29 to 2.58 µM) | > 64 µg/mL | 4 to 8 µg/mL (≈ 5.16 to 10.3 µM) | > 64 µg/mL | > 64 µg/mL | 16 to 32 µg/mL (≈ 20.6 to 41.3 µM) | 16 to 32 µg/mL (≈ 20.6 to 41.3 µM)
O=C(NCCCN1CCN(C(=O)N[C@@H](C(=O)N[C@H]2Cc3ccc(F)c(C(=O)O)c3OB2O)c2cc(F)c(O)c(O)c2Cl)C(=O)C1=O)c1cccnc1 [Example 210, (R)-3-((R)-2-(2-chloro-5-fluoro-3,4-dihydroxyphenyl)-2-(4-(3-(nicotinamido)propyl)-2,3-dioxopiperazine-1-carboxamido)acetamido)-7-fluoro-2-hydroxy-3,4-dihydro-2H-benzo[e][1,2]oxaborinine-8-carboxylic acid] | < 10 µM | < 10 µM | < 1 µg/mL | < 1 µg/mL | < 1 µg/mL | < 1 µg/mL | 2 to 4 µg/mL (≈ 2.69 to 5.37 µM) | < 1 µg/mL | < 1 µg/mL | > 64 µg/mL | 16 to 32 µg/mL (≈ 21.5 to 43 µM) | > 64 µg/mL | > 64 µg/mL | 16 to 32 µg/mL (≈ 21.5 to 43 µM) | > 64 µg/mL
O=C(NCCN1CCN(C(=O)NC(C(=O)N[C@H]2Cc3ccc(F)c(C(=O)O)c3OB2O)c2cc(F)c(O)c(O)c2Cl)C(=O)C1=O)c1ccc(O)cc1 (stereo partly drawn) [Example 214, (3R)-3-(2-(2-chloro-5-fluoro-3,4-dihydroxyphenyl)-2-(4-(2-(4-hydroxybenzamido)ethyl)-2,3-dioxopiperazine-1-carboxamido)acetamido)-7-fluoro-2-hydroxy-3,4-dihydro-2H-benzo[e][1,2]oxaborinine-8-carboxylic acid] | < 10 µM | < 10 µM | < 1 µg/mL | < 1 µg/mL | < 1 µg/mL | < 1 µg/mL | > 128 µg/mL | < 1 µg/mL | 1 to 2 µg/mL (≈ 1.34 to 2.68 µM) | > 64 µg/mL | 4 to 8 µg/mL (≈ 5.36 to 10.7 µM) | > 64 µg/mL | > 64 µg/mL | 16 to 32 µg/mL (≈ 21.5 to 42.9 µM) | 16 to 32 µg/mL (≈ 21.5 to 42.9 µM)
